Legend:
P. acnes NCTC 737 [1] = experiment: Minimum inhibitory concentration (MIC) assay, liquid medium; type: cell-based, Propionibacterium acnes
Description: (§1) The propionibacteria were cultured and maintained on Wilkins-Chalgren Anaerobe Medium (agar and broth) at pH 6.0; all cultures were incubated anaerobically at 37° C. for 72 hours.
(§2) This is a standard international method for quantitatively assessing the antimicrobial activity of a compound in a liquid medium. The method used a sterile 96-well microtitre plate, capable of holding about 200 μl of liquid per well. The wells contained liquid culture medium and ranges of decreasing concentrations of the relevant test compound in doubling dilutions (eg, 1000, 500, 250, 125 . . . μg/ml, etc. down to 0.49 μg/ml). The culture media were as described above.
(§3) The wells were inoculated with a liquid suspension of freshly grown micro-organism and incubated under the conditions described above. After incubation, the microtitre plate was examined visually (with the aid of a light box) for cloudiness in each well, which would indicate microbial growth. The MIC value was recorded as the lowest concentration of test compound required to inhibit microbial growth, ie, the lowest concentration for which the liquid in the well remained clear.
(§4) The assays included both negative (culture medium with no micro-organisms) and positive (culture medium plus diluting solvent plus micro-organism) controls.

P. acnes NCTC 737 [2] = experiment: Minimum bactericidal concentration (MBC) assay; type: cell-based, Propionibacterium acnes
Description: (§5) The propionibacteria were cultured and maintained on Wilkins-Chalgren Anaerobe Medium (agar and broth) at pH 6.0; all cultures were incubated anaerobically at 37° C. for 72 hours. This assay, normally carried out after an MIC assay, determines the rnininiurn concentration of a compound that is lethal to the micro-organism being tested. […] These samples were then individually sub-cultured on antibiotic-free agar medium, under the incubation conditions described above. Following incubation they were examined visually for microbial growth.

P. acnes NCTC 737 [3] = experiment: Disc diffusion / synergy disc diffusion assay ((S)DDA); type: cell-based, Propionibacterium acnes; conditions: for SDDA area increase / SDDA increase: 200 μg DOS salt + 200 μg TCC; for SDDA with TCC: 200 μg DOS salt + 200 μg TCC on one disc; for SDDA increase: vs greater single-compound zone; for DDA + salt: sodium chloride 100 mM; for DDA + lipid: triolein 1% v/v
Description: as §1
(§6) A sterile paper disc was impregnated with a sample of the test compound in a suitable solvent and 30 minutes allowed for the solvents to evaporate (where possible). The disc was then placed on an agar plate onto which the test micro-organism had been inoculated. The plate was then incubated under the conditions described above, following which it was examined visually for signs of microbial growth. If the test compound had antimicrobial activity, a circular zone of no growth would be obtained around the disc. The diameter of this zone of “inhibition” was measured using a ProtoCOL™ automated zone sizer (Synbiosis, Cambridge, UK). In general, a greater diameter and/or area of the zone of inhibition indicates a greater antimicrobial activity in the relevant test compound, although other factors such as test compound mobility through the agar gel may also influence the result.
(§7) Two test a compounds A and B were placed on a single paper disc and the above described DDA procedure repeated. An increase in diameter of the zone of inhibition, compared to the greater of the zone diameters for the two compounds individually, was taken to indicate potential antimicrobial synergy. In practical terms, an increase of greater than 5 mm could be treated as significant.
Both the DDA and the SDDA test may be carried out using an agar gel supplemented with lipid and/or salt to simulate some of the major components present in human skin and to assess whether these substances might reduce the antimicrobial activity observed for the test compound. Performance under these conditions can provide a more reliable indication of activity on topical application. The supplements used in Examples 1, 11, 12 and 13 below were lipid (either Tween™ 80 at 1% v/v (Example 1) or triolein at 1% v/v (Examples 11, 12 and 13) and sodium chloride (100 mM).

[4] = tested on: Por. gingivalis NCTC 11834; experiment: (S)DDA disc diffusion; type: cell-based, Porphyromonas gingivalis; conditions: for SDDA with TCC: 200 μg DOS salt + 200 μg TCC on one disc; for DDA: 200 μg per disc
Description: (§8) The P. gingivalis strains were cultured and maintained on Wilkins-Chalgren Anaerobe Medium (agar and broth) at pH 7.0; all cultures were incubated anaerobically at 37° C. for 5-7 days.
as §6, §7
(§9) For the (S)DDA experiments; 200 μg of the DOS salts and/or the TCC were loaded onto each disc for Por. gingivalis experiments. For the Strep. mutans experiments, 200 μg of the TCC and 50 μg of DOSS were used on each disc. All the experiments were conducted in triplicate.

Strep. mutans ATCC 25175 [5] = experiment: (S)DDA disc diffusion; type: cell-based, Streptococcus mutans; conditions: 200 μg per disc
Description: (§10) The S. mutans was cultured and maintained on Wilkins-Chalgren Anaerobe Medium (agar and broth) at pH 7.0 supplemented with 1 g/L glucose; all cultures were incubated at 37° C. for 48 h in an atmosphere containing 5% CO2.
as §6, §7, §9

[6] = tested on: Por. gingivalis NCTC 11834; experiment: MIC assay, liquid medium; type: cell-based, Porphyromonas gingivalis
Description: as §8, §2, §3, §4

[7] = tested on: Por. gingivalis NCTC 11834; experiment: MBC assay; type: cell-based, Porphyromonas gingivalis
Description: as §5, with “P. gingivalis strains” for “propionibacteria”, “7.0;” for “6.0;”, “5-7 days.” for “72 hours.”

Strep. mutans ATCC 25175 [8] = experiment: MIC assay, liquid medium; type: cell-based, Streptococcus mutans
Description: as §10, §2, §3, §4

Strep. mutans ATCC 25175 [9] = experiment: MBC assay; type: cell-based, Streptococcus mutans
Description: as §5, with “S. mutans was” for “propionibacteria were”, “7.0 supplemented with 1 g/L glucose;” for “6.0;”, “incubated” for “incubated anaerobically”, “48 h in an atmosphere containing 5% CO2.” for “72 hours.”

Por. gingivalis 381 = experiment: Biofilm disruption assay on hydroxyapatite discs; type: cell-based, Porphyromonas gingivalis; conditions: Por. gingivalis 381 biofilm, DOSS 0.5% (w/v), CHX 0.2% (w/v)
Description: (§11) This assay was designed to determine quantitatively the relative potency of a test compound to disrupt (effectively kill) biofilms formed by a test organism on hydroxyapatite (HA) discs.
(§12) Biofilms were formed on sterile dense ceramic HA discs 7 mm diameter x 1.8 mm thick (Clarkson Chromatography) by placing the discs in the appropriate liquid media (as described above) inoculated with the test organism (0.5×10^8 cfu/ml). The HA discs were then incubated at 37° C. for ˜48 h in a 5% CO2 atmosphere (for Strep. mutans ATCC 25175) or ˜96 h under anaerobic conditions (for Por. gingivalis 381). Following the incubation period the supernatant was removed from the wells containing the HA discs and the discs were washed×3 with fresh media to ensure all planktonic cells were removed. The HA discs were then transferred to sterile bijoux bottles containing 1 ml of phosphate buffered saline (PBS) plus test compound(s) at the required concentration. After a set time period (usually 2 and/or 5 min), the HA disc was transferred to another sterile bijoux containing 1 ml of fresh growth media. Adherent cells were then harvested by vigorous vortexing for 2 minutes. A sample was then taken, serially diluted 10-fold in fresh growth media and inoculated onto agar plates in triplicate. Untreated HA discs, and HA discs added to PBS containing only the solvents used to dissolve the test compound(s), acted as controls.
(§13) The plates were then incubated as described above and subsequently examined visually for growth. Colonies were counted at an appropriate serial dilution (5-50 individual colonies visible) with the aid of a colony counter. These measurements were then converted to numbers of colony forming units (cfu), using the formula: cfu/ml=number of colonies×serial dilution factor×100 (as only a 10 μl sample was taken).
(§14) These cfu values were then converted into log10 values and plotted graphically against time of sample removal.
(§15) At each time point, samples were assessed in triplicate; the final cfu/ml value was an average (mean) of the three readings.
(§16) Biofilm disruption assays, as described above, were carried out using DOSS as the test compound and chlorhexidine (CHX) as a positive control. For these experiments, the DOSS was tested at 0.5% w/v against Por. gingivalis and 1% w/v against Strep. mutans. The ahlorhexidine was tested at a concentration of 0.2% w/v against both micro-organisms. The DOSS was dissolved in ethanol and the chlorhexidine in distilled water. All the experiments were conducted in triplicate.

Strep. mutans ATCC 25175 [10] = experiment: Biofilm disruption assay on hydroxyapatite discs; type: cell-based, Streptococcus mutans; conditions: Strep. mutans ATCC 25175 biofilm, DOSS 1.0% (w/v), CHX 0.2% (w/v)
Description: as §11, §12, §13, §14, §15, §16

[11] = 200 μg of each test compound per disc (Example 2)
[12] = 200 μg per disc, pH 6.0, single replicates

MIC (P. acnes NCTC 737 [1]) [µg/mL] | MIC [6] [µg/mL] | MIC/MBC ratio [7] | MIC (Strep. mutans ATCC 25175 [8]) [µg/mL] | Compound | MBC (P. acnes NCTC 737 [2]) [µg/mL] | MIC/MBC ratio (P. acnes NCTC 737 [2]) | SDDA area increase (P. acnes NCTC 737 [3]) [%] | SDDA with TCC (P. acnes NCTC 737 [3]) [mm] | SDDA increase (P. acnes NCTC 737 [3]) [mm] | DDA (P. acnes NCTC 737 [3]; [11]) [mm] | DDA (P. acnes NCTC 737 [3]; [12]) [mm] | DDA + salt (P. acnes NCTC 737 [3]; 200 μg per disc, pH 6.0) [mm] | DDA + lipid (P. acnes NCTC 737 [3]; 200 μg per disc, pH 6.0) [mm] | SDDA area increase [4] [%] | SDDA increase [4] [mm] | SDDA with TCC [4] [mm] | DDA [4] [mm] | DDA (Strep. mutans ATCC 25175 [5]) [mm] | MBC [7] [µg/mL] | MBC (Strep. mutans ATCC 25175 [9]) [µg/mL] | further results
15.6 | 3.9 | 0.5 | 15.6 | CCCCC(CC)COC(=O)CC(C(=O)OCC(CC)CCCC)S(=O)(=O)[O-].CCCCC(CC)COC(=O)CC(C(=O)OCC(CC)CCCC)S(=O)(=O)[O-].[Ca+2] (stereo not drawn) [DOS calcium salt] | >31.25 | <0.5 | 128.93 | 36.16 | 12.26 | 23.9 | 44.71 | 43.16 | 49.36 | 38.64 | 9.24 | 61.31 | 52.07 | 32.13 | 7.8 | 31.25 | MIC/MBC ratio (Strep. mutans ATCC 25175 [9]): 0.5
– | – | – | – | [H]/N=C(\N/C(=N/[H])NCCCCCCNC(=N)NC(=N)Nc1ccc(Cl)cc1)Nc1ccc(Cl)cc1 [CHX, chlorhexidine] | – | – | – | – | – | – | – | – | – | – | – | – | – | – | – | – | Viable cell counts (Por. gingivalis 381; 0 min): 7.53 log10 cfu/ml; Viable cell counts (Por. gingivalis 381; 2 min): 6.50 log10 cfu/ml; Viable cell counts (Por. gingivalis 381; 5 min): 6.76 log10 cfu/ml; Viable cell counts (Strep. mutans ATCC 25175 [10]; 0 min): 6.56 log10 cfu/ml; Viable cell counts (Strep. mutans ATCC 25175 [10]; 2 min): 6.12 log10 cfu/ml; Viable cell counts (Strep. mutans ATCC 25175 [10]; 5 min): 5.99 log10 cfu/ml
7.8 | 3.9 | 0.5 | 15.6 | CCCCC(CC)COC(=O)CC(C(=O)OCC(CC)CCCC)S(=O)(=O)[O-].[K+] (stereo not drawn) [DOS potassium salt] | 62.5 | 0.125 | 99.37 | 36.68 | 10.7 | 25.91 | 46.57 | 46.26 | 48.12 | 43.78 | 10.18 | 61.31 | 51.13 | 35.28 | 7.8 | 31.25 | MIC/MBC ratio (Strep. mutans ATCC 25175 [9]): 0.5

Source: patent US20100273876A1, “ANTIBACTERIAL FORMULATION COMPRISING A DIALKYL SULPHOSUCCINATE AND A CARBANILIDE ANTIBACTERIAL AGENT” (priority 2007, published 2010)
